Laboratory results as given in ChEMBL document CHEMBL1743201, “Casarett and Doull's Toxicology The Basic Science of Poisons, 7th edition” (2008).
Blank lines part the entries; values can stand above or below the compound they belong to.

Tests used:
Assay type in all cases: ADME
[1] = biological target: T1, Sulfotransferase 1E1 (Homo sapiens, UniProt P49888); assay: Major substrate of human cytosolic sulfotransferase SULT1E1
T1 sequence (P49888 whole entry): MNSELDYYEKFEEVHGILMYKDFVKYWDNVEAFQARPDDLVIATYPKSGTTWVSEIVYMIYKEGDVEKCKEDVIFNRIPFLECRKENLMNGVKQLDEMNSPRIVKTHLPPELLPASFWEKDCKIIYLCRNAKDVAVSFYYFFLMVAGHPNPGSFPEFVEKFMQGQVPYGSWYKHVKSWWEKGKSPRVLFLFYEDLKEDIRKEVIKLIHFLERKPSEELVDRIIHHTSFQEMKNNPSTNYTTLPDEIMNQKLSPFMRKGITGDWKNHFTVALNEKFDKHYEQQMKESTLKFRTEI

[2] = biological target: T2, UDP-glucuronosyltransferase 1A10 (Homo sapiens, UniProt Q9HAW8); assay: Substrate of human UDP-glucuronosyltransferase UGT1A10
T2 sequence (Q9HAW8 whole entry): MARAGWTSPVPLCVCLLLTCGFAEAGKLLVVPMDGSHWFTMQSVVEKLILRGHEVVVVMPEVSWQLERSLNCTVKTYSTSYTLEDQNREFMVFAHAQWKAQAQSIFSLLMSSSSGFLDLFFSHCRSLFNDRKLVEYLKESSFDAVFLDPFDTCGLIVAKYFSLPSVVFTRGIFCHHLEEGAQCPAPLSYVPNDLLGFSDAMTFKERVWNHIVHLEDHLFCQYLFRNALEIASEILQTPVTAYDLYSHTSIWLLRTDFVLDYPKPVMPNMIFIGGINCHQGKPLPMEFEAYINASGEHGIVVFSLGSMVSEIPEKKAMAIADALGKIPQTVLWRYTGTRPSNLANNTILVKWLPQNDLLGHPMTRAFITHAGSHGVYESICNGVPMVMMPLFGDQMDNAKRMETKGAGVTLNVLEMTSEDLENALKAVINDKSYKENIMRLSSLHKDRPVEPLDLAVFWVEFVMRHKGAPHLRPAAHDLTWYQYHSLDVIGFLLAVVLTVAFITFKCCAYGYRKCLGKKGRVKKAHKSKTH

[3] = biological target: T3, UDP-glucuronosyltransferase 1A6 (Homo sapiens, UniProt P19224); assay: Substrate of human UDP-glucuronosyltransferase UGT1A6
T3 sequence (P19224 whole entry): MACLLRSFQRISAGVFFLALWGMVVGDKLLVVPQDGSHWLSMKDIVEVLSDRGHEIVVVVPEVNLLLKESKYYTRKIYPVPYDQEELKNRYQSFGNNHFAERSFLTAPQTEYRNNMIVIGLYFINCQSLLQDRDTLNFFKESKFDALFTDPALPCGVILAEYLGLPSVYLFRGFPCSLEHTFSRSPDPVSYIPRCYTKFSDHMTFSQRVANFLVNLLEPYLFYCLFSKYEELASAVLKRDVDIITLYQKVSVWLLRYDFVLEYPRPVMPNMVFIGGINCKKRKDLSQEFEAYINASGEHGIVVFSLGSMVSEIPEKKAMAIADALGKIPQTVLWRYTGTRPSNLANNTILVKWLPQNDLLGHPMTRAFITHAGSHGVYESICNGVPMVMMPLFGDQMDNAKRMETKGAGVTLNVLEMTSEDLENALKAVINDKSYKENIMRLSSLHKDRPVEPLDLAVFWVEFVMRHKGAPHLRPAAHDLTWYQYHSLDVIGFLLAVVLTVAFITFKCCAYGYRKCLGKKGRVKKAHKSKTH

[4] = biological target: T4, UDP-glucuronosyltransferase 1A8 (Homo sapiens, UniProt Q9HAW9); assay: Substrate of human UDP-glucuronosyltransferase UGT1A8
T4 sequence (Q9HAW9 whole entry): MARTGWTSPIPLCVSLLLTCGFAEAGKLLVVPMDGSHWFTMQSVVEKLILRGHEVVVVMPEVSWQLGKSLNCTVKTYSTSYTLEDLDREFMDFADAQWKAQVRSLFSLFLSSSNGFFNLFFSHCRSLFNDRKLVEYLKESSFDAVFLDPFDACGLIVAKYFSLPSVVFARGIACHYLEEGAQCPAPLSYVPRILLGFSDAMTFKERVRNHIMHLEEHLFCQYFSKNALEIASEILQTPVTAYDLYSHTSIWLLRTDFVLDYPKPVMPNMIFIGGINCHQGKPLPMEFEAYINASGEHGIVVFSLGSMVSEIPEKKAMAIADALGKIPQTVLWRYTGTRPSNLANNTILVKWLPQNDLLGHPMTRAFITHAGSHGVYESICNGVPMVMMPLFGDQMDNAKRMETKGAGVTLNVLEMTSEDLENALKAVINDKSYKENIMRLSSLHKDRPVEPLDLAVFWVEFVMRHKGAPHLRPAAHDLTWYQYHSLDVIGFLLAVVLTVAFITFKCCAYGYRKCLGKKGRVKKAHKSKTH

[5] = biological target: T5, UDP-glucuronosyltransferase 1A9 (Homo sapiens, UniProt O60656); assay: Substrate of human UDP-glucuronosyltransferase UGT1A9
T5 sequence (O60656 whole entry): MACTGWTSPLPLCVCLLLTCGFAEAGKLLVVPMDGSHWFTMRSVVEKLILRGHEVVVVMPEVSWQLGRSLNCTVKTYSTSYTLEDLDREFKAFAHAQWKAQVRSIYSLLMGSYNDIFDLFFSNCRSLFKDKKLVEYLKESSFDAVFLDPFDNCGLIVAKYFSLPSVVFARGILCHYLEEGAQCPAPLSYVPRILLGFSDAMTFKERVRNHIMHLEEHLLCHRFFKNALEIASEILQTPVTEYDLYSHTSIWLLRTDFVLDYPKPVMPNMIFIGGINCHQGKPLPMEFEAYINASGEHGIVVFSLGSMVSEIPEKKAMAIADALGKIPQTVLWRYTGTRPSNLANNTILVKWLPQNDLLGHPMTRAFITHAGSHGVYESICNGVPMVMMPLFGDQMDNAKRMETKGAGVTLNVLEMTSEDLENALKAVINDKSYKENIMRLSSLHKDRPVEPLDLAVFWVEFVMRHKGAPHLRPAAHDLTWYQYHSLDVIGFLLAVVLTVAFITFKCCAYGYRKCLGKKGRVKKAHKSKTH

[6] = biological target: T6, Cytochrome P450 2C8 (Homo sapiens, UniProt P10632); assay: Clinically relevant inhibitors of human liver microsomal P450 enzymes, isoform CYP2C8; conditions: microsomes
T6 sequence (P10632 whole entry): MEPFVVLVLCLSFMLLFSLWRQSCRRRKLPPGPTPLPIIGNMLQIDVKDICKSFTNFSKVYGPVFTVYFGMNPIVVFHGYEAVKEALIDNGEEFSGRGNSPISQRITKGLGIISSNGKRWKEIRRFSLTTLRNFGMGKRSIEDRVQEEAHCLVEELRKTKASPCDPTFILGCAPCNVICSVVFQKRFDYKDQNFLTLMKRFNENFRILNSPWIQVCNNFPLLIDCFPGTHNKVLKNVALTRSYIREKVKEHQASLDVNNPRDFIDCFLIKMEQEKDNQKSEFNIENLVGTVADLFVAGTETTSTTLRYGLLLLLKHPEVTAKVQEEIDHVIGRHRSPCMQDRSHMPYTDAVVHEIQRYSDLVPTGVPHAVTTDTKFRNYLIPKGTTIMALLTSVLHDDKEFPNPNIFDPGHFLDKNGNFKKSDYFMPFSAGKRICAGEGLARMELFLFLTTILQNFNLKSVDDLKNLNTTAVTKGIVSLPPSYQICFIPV

[7] = biological target: T7, UDP-glucuronosyltransferase 1A1 (Homo sapiens, UniProt P22309); assay: Substrate of human UDP-glucuronosyltransferase UGT1A1
T7 sequence (P22309 whole entry): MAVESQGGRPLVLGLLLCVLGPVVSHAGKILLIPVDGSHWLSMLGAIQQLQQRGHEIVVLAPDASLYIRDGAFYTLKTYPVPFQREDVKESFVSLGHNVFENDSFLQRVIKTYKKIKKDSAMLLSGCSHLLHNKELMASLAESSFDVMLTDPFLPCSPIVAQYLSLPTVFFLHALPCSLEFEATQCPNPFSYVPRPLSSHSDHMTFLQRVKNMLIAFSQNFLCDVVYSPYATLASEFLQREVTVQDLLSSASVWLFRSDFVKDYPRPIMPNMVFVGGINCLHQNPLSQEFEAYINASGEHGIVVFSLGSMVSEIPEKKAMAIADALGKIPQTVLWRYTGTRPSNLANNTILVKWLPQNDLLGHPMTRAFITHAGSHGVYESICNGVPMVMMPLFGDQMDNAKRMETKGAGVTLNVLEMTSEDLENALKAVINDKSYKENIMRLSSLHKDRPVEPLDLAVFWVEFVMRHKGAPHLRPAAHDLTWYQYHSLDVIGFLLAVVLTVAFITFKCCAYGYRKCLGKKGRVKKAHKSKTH

[8] = biological target: Sulfotransferase 1A3 (Homo sapiens, UniProt P0DMM9); assay: Major substrate of human cytosolic sulfotransferase SULT1A3
[9] = biological target: Sulfotransferase 1B1 (Homo sapiens, UniProt O43704); assay: Major substrate of human cytosolic sulfotransferase SULT1B1
[10] = biological target: Sulfotransferase 1A1 (Homo sapiens, UniProt P50225); assay: Major substrate of human cytosolic sulfotransferase SULT1A1
[11] = biological target: T8, Sulfotransferase 4A1 (Homo sapiens, UniProt Q9BR01); assay: Major substrate of human cytosolic sulfotransferase SULT4A1_v1
T8 sequence (Q9BR01 whole entry): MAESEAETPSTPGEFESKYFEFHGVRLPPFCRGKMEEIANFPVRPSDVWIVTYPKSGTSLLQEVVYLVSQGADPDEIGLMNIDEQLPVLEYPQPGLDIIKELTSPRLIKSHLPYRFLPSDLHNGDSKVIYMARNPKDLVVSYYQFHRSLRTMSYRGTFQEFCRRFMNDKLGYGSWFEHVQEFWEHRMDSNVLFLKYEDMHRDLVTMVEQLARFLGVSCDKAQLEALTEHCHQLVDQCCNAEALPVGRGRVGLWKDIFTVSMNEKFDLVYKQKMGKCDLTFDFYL

[12] = biological target: T9, Sulfotransferase 2A1 (Homo sapiens, UniProt Q06520); assay: Major substrate of human cytosolic sulfotransferase SULT2A1
T9 sequence (Q06520 whole entry): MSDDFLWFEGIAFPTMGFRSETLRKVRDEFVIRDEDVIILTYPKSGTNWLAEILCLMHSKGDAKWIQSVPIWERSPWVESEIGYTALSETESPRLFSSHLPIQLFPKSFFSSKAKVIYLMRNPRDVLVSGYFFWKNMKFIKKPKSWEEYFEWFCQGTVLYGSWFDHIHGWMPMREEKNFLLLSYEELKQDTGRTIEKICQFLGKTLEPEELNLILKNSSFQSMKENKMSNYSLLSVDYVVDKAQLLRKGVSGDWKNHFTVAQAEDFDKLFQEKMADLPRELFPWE

[13] = biological target: Sulfotransferase 1C4 (Homo sapiens, UniProt O75897); assay: Major substrate of human cytosolic sulfotransferase SULT1C4
Chain of Sulfotransferase 1C4 (O75897 whole entry): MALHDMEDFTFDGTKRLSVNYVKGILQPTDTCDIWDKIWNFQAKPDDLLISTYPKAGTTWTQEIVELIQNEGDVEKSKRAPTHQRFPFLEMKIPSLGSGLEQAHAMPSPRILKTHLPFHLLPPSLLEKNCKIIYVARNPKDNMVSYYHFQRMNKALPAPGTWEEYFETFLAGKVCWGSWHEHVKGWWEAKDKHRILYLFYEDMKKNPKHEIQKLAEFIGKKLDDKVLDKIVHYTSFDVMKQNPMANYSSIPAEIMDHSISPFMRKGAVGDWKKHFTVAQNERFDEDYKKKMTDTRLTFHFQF

Chain of Sulfotransferase 1A3 (P0DMM9 whole entry): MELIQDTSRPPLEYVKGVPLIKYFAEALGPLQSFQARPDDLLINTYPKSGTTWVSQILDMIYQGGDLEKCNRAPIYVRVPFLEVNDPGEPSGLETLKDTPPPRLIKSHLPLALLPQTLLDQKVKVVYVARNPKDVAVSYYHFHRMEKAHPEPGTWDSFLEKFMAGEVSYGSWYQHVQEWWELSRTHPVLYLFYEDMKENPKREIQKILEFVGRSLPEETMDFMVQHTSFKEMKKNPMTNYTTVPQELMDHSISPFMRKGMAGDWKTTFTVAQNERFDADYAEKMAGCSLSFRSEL
Chain of Sulfotransferase 1A1 (P50225 whole entry): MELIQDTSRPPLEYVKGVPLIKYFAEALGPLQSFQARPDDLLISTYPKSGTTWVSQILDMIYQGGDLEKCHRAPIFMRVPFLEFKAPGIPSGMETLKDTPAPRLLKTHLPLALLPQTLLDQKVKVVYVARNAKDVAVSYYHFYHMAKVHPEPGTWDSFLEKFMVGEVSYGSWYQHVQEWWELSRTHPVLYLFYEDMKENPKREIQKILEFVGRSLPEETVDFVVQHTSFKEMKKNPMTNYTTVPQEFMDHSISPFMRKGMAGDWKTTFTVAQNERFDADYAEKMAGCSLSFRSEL
Chain of Sulfotransferase 1B1 (O43704 whole entry): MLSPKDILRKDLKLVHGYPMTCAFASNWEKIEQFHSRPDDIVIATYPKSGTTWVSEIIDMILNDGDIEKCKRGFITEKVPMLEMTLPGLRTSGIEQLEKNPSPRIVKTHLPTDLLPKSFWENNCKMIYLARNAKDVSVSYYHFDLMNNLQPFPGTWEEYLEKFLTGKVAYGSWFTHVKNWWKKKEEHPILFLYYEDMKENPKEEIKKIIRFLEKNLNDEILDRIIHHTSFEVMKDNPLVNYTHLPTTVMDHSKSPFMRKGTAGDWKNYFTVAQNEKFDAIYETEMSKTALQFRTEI

Activity [1]: Substrate
Activity [2]: Substrate
Activity [3]: Substrate
SMILES: Oc1cccc2ccccc12 [1-NAPHTHOL]

Activity [2]: Substrate
Activity [4]: Substrate
Activity [5]: Substrate
SMILES: NS(=O)(=O)c1cc(C(=O)O)c(NCc2ccco2)cc1Cl [FUROSEMIDE]

Activity [6]: Inhibitor
SMILES: CCc1ccc(CCOc2ccc(CC3SC(=O)NC3=O)cc2)nc1 (stereo unspecified) [PIOGLITAZONE]

Activity [2]: Substrate
Activity [4]: Substrate
Activity [7]: Substrate
SMILES: O=C(c1ccc(OCCN2CCCCC2)cc1)c1c(-c2ccc(O)cc2)sc2cc(O)ccc12 [RALOXIFENE]

Activity [8]: Substrate
SMILES: NC[C@H](O)c1ccc(O)c(O)c1 [NOREPINEPHRINE]

Activity [9]: Substrate
Activity [10]: Substrate
Activity [8]: Substrate
SMILES: NCCc1ccc(O)c(O)c1 [DOPAMINE]

Activity [2]: Substrate
SMILES: CC#C[C@]1(O)CC[C@H]2[C@@H]3CCc4cc(O)ccc4[C@H]3CC[C@@]21C [ESTROGEN]

Activity [6]: Inhibitor
SMILES: CC(C)(O)c1ccccc1CC[C@@H](SCC1(CC(=O)O)CC1)c1cccc(/C=C/c2ccc3ccc(Cl)cc3n2)c1 [MONTELUKAST]

SMILES: Nc1ccc2ccccc2c1 [NAPHTHYLAMINE]
Activity [11]: Substrate

Activity [11]: Substrate
Activity [9]: Substrate
Activity [7]: Substrate
SMILES: N[C@@H](Cc1cc(I)c(Oc2cc(I)c(O)c(I)c2)c(I)c1)C(=O)O [LEVOTHYROXINE]

Activity [2]: Substrate
Activity [10]: Substrate
Activity [4]: Substrate
SMILES: Cc1c(C)c2c(c(C)c1O)CCC(C)(COc1ccc(CC3SC(=O)NC3=O)cc1)O2 (stereo unspecified) [TROGLITAZONE]

SMILES: O=c1c(O)c(-c2ccc(O)c(O)c2)oc2cc(O)cc(O)c12 [QUERCETIN]
Activity [6]: Inhibitor

Activity [11]: Substrate
Activity [9]: Substrate
Activity [10]: Substrate
SMILES: N[C@@H](Cc1cc(I)c(Oc2ccc(O)c(I)c2)c(I)c1)C(=O)O [LIOTHYRONINE]

Activity [6]: Inhibitor
SMILES: CC(C)c1nc(N(C)S(C)(=O)=O)nc(-c2ccc(F)cc2)c1/C=C/[C@@H](O)C[C@@H](O)CC(=O)O [ROSUVASTATIN]

Activity [11]: Substrate
Activity [1]: Substrate
Activity [12]: Substrate
Activity [13]: Substrate
SMILES: C[C@]12CC[C@@H]3c4ccc(O)cc4CC[C@H]3[C@@H]1CCC2=O [ESTRONE]

Activity [6]: Inhibitor
SMILES: Cc1ccc(C)c(OCCCC(C)(C)C(=O)O)c1 [GEMFIBROZIL]

SMILES: OCc1ccc2ccc3cccc4ccc1c2c34
Activity [12]: Substrate
Activity [13]: Substrate
Activity [8]: Substrate

Activity [8]: Substrate
SMILES: CC(CCc1ccc(O)cc1)NCCc1ccc(O)c(O)c1 (stereo unspecified) [DOBUTAMINE]

SMILES: N[C@@H](Cc1ccc(Oc2cc(I)c(O)c(I)c2)c(I)c1)C(=O)O [REVERSE TRIIODOTHYRONINE]
Activity [9]: Substrate

SMILES: NC(Cc1ccc(Oc2ccc(O)c(I)c2)c(I)c1)C(=O)O (stereo unspecified) [DIIODOTHYRONINE]
Activity [9]: Substrate
Activity [10]: Substrate

Activity [8]: Substrate
SMILES: CC(C)(C)NCC(O)c1ccc(O)c(CO)c1 (stereo unspecified) [ALBUTEROL]
